Data published in patent US8980933B2, “Combretastatin analogs for use in the treatment of cancer” (Universitat Bayreuth, priority 2010, dated 2015).
pIC50: −log10 of the molar value. Converted amounts (≈) assume the structure as drawn. “And” between values parts separate entries of the source, which are not always exact repeats. Identical values can stand only once.

Columns and labels:
[1] = tested on: H12.1 xenograft; details: H12.1 xenograft bearing mice; cited from earlier work
[2] = tested on: 1411HP germ cell tumor xenografts; details: 1411HP xenografts; cited from earlier work
[3] = tested on: PtK-2 opossum kidney cells; assay: Cytotoxicity, PtK-2; assay type: cell-based; details: PtK2; PtK-2 opossum kidney cells (non-malign)
Procedure: (§1) The compounds 9a, 9b and 9c, which are exemplary compounds of formula (III) according to the present invention, as well as the reference compound 25f were tested in a similar manner.

[4] = tested on: HUVEC cells; assay: Minimal inhibitory concentration in HUVEC; assay type: cell-based
Procedure: as §1

[5] = tested on: PC-3 prostata cancer; assay: Cytotoxicity, PC-3; assay type: cell-based
Procedure: as §1

[6] = tested on: NHDF fibroblasts; assay: Cytotoxicity, NHDF; assay type: cell-based; details: Homo sapiens; NHDF fibroblasts (non-malign)
Procedure: as §1

[7] = tested on: L929 fibroblasts; assay: Cytotoxicity, L929; assay type: cell-based; details: Mus musculus, read-out: IC50 L-929
Procedure: as §1

[8] = tested on: KB-3-1 cervix carcinoma; assay: Cytotoxicity, KB-3-1; assay type: cell-based; details: Homo sapiens
Procedure: as §1

[9] = tested on: HUVEC cells; assay: Tube formation assay on matrigel; assay type: cell-based
Procedure: 35 μL of media:matrigel (1:1) were added into wells of a 96-well plate and incubated at 37° C. for 30 minutes. A trypsinized HUVEC cell suspension was set to 800.000 cells/mL. In another 96-well plate 25 μL of the compound stock were serially diluted with 25 μL of media. 25 μL of compound dilutions and 25 μL of cell suspension were added to the matrigel coated 96-well plate and the cells were incubated over night. As a negative control, methanol was used as in place of the compound dilutions.

[10] = tested on: HL-60 cells; assay: Mitochondrial membrane assay (JC-1), HL-60; assay type: cell-based, human; details: 5 μM, red/green fluorescence ratio relative to untreated controls (100%), mean ± SD
Procedure: (§2) Values represent means of four independent experiments±standard deviation.
(§3) Changes in mitochondrial membrane potential were determined by the Mitochondrial Membrane Detection Kit (Stratagene, La Jolla, Calif., USA) according to the manufacturer's procedure. 72 h following treatment with 5 μM of the test compounds, cell samples were centrifuged at 400 g for 5 min. The pellets were resuspended in 500 μL diluted JC-1 solution, incubated at 37° C. for 15 min (HL-60) and then centrifuged again for 5 min at 400 g. After washing, the pellets were resuspended in 100 μL PBS and transferred into the wells of a black 96-well plate. The red (λex=585 nm, λem=590 nm) and green (λex=510 nm, λem=527 nm) fluorescence intensities were measured and their ratio was calculated.

[11] = tested on: 518A2 cells; assay: ROS generation, NBT assay, 518A2; assay type: cell-based, human; details: 50 μM, relative to untreated controls (1%), mean ± SD
Procedure: (§4) The generation of reactive oxygen species (ROS) in tumor cells is a sign of cellular stress resulting in severe damage of cellular components such as DNA, lipids or proteins.
(§5) For the NBT assay, HL-60 cells (0.5·10^6/mL) were plated in 96-well tissue culture plates, and test compounds were added after 24 h incubation at 37° C. to achieve a final concentration of 50 μM. […] After removal of the cell medium by centrifugation, the cells in each well were resuspended in 100 μL 0.1% NBT, and the plates were placed in the incubator for 1 h. The reduced NBT was solubilized with 100 μl 2 M KOH and 130 μl DMSO for 30 min. The absorbance was measured for each well at 630 and 405 nm (background) using an ELISA plate reader. The adherent 518A2 cells (0.5·10^4/mL) were seeded out in 96-well tissue culture plates after trypsinization and incubation for 24 h at 37° C. to allow attachment, then treated similarly, only that the medium was removed prior to incubation with NBT for 4 h. All experiments were carried out in quadruplicate.

[12] = tested on: 518A2 cells; assay: Mitochondrial membrane assay (JC-1), 518A2; assay type: cell-based, human; details: 5 μM, red/green fluorescence ratio relative to untreated controls (100%), mean ± SD
Procedure: as §2, §3

[13] = tested on: HT-29 colon carcinoma cells; assay: MTT cell growth inhibition, HT-29; assay type: cell-based, human; details: multi-drug resistant HT-29 colon cancer cells
Procedure: (§6) The effects of the compounds 5b, 6b, 8a, and 8e according to the present invention and of the reference compound 25f (Wang et al., J. Med. Chem. 2002, 45, 1697-1711) on cells of the following human tumor cell lines were evaluated: 518A2 melanoma, HL-60 leukemia, HT-29 colon carcinoma, KB-V1/Vbl cervical carcinoma, and MCF-7/Topo breast carcinoma.
(§7) The HL-60 cells were obtained from the German Collection of Biological Material (DSMZ), Braunschweig, Germany; the human 518A2 melanoma cells as well as the testicular germ cell tumor cell lines H12.1 and 1411HP were cultured in the department of oncology and hematology, Medical Faculty of the Martin-Luther University, Halle, Germany; the KBV1/Vbl and the MCF-7/Topo cells were obtained from the Institute of Pharmacy of the University Regensburg, Germany; and the colon HT-29 cells from the University Hospital Erlangen, Germany. The HL-60 and the HT-29 cells were grown in RPMI-1640 medium supplemented with 10% fetal calf serum (FCS), 100 IU/mL penicillin G, 100 μg/mL streptomycin sulfate, 0.25 μg/mL amphotericin B and 250 μg/mL gentamycine (all from Gibco, Egenstein, Germany). The 518A2 and the KB-V1/Vbl cells were cultured in Dulbecco's Modified Eagle Medium (D-MEM, Gibco) containing 10% FCS, 100 IU/mL penicillin G, 100 μg/mL streptomycin sulfate, 0.25 μg/mL amphotericin B and 250 μg/mL gentamycine. The MCF-7/Topo cells were grown in E-MEM medium (Sigma) supplemented with 2.2 g/L NaHCO3, 110 mg/L sodium pyruvate and 5% FCS. The cells were maintained in a moisture-saturated atmosphere (5% CO2) at 37° C. in 75-mL culture flasks (Nunc, Wiesbaden, Germany). They were serially passaged following trypsinisation by 0.05% trypsin/0.02% EDTA (PAA laboratories, Clbe, Germany). Mycoplasma contamination was routinely monitored, and only mycoplasma-free cultures were used.
(§8) MTT [3-(4,5-dimethylthiazol-2-yl)-2,5-diphenyltetrazolium bromide](ABCR) was used to identify viable cells which reduce it to a violet formazan (Mosmann, J. Immunol. Methods 1983, 65, 55-63). HL-60 leukemia cells (5×10^5/mL), and cells (5×10^4/mL) of 518A2 melanoma, HT-29 colon, KB-V1/Vbl cervix and MCF-7/Topo breast carcinoma were seeded out in 96-well tissue culture plates and cultured for 24 h. Incubation (5% CO2, 95% humidity, 37° C.) of the cells following treatment with the test compounds was continued for 24, 48 or 72 h. Blank and solvent controls were treated identically. MTT in phosphate buffered saline (5 mg/mL) was added to a final concentration of 0.05% (HL-60, 518A2) or 0.1% (HT-29, KB-V1/Vbl, MCF-7/Topo). After 2 h the formazan precipitate was dissolved in 10% sodium dodecylsulfate in DMSO containing 0.6% acetic acid in the case of the HL-60 cells. For the adherent 518A2, KB-V1/Vbl, MCF-7/Topo and HT-29 cells the microplates were swiftly turned to discard the medium before adding the solvent mixture. The microplates were gently shaken in the dark for 30 min and absorbance at 570 nm and 630 nm (background) was measured with an ELISA plate reader. All experiments were carried out in quadruplicate; the percentage of viable cells was calculated as the mean±SD with controls set to 100%.

[14] = tested on: vascular system of a fertilized chicken embryo; assay: CAM assay; assay type: in vivo; details: 10 nmol applied on the embryonal vessels; up to three days
Procedure: Compounds of the present invention were tested for anti-angiogenic and vasculature disrupting properties using the CAM assay. In this test the vascular system of a fertilized chicken embryo is used as a model (Wilting et al., Anat. Embryol. 1991, 183, 259-271).
Fertilized chicken eggs received from a nearby farm directly after laying have been incubated at a temperature of 36-38° C. and a relative humidity of 60%. During the growth the eggs have been held in an inclined position and turned from time to time in order to avoid an adherence to the shell. After four days each embryo was transferred into a cavity created by fixing a thin plastic foil on top of a cup and covered. This was done by opening the shell at the flat end where the air sac resides and letting the content slip out. There the growth continued for another 2-4 days until the first blood vessels became visible. Then 10 nmol of the substance to be tested (in 10 μL PBS with 1% DMF) have been applied directly on the embryonal vessels. As a reference PBS was used. Finally incubation continued for up to another three days (Dugan et al., Anat. Rec. 1991, 229, 125-128; Fisher, Tested studies for laboratory teaching 1993, 5, 105-115).

[15] = tested on: HL-60 cells; assay: TUNEL assay; assay type: cell-based, human; details: 10 μM; 16 h incubation
[16] = tested on: MCF-7/Topo breast carcinoma cells; assay: MTT cell growth inhibition, MCF-7/Topo; assay type: cell-based, human; details: MCF-7/Topo (BCRP+)
Procedure: as §6, §7
as §8, with “MTT in phosphate buffered saline (5 mg/mL) was added to a final concentration of 0.05% (HL-60, 518A2) or 0.1% (HT-29, KB-V1/Vbl, MCF-7/Topo). After 2 h the formazan precipitate was dissolved in 10% sodium dodecylsulfate in DMSO containing 0.6% acetic acid in the case of the HL-60 cells. For the adherent 518A2, KB-V1/Vbl, MCF-7/Topo and HT-29 cells the microplates were swiftly turned to discard the medium before adding the solvent mixture.” left out

[17] = tested on: KB-V1/Vbl cervical carcinoma cells; assay: MTT cell growth inhibition, KB-V1/Vbl; assay type: cell-based, human; details: KB-V1/Vbl (Pgp+)
Procedure: The MCF-7/Topo cells were grown in E-MEM medium (Sigma) supplemented with 2.2 g/L NaHCO3, 110 mg/L sodium pyruvate and 5% FCS. The cells were maintained in a moisture-saturated atmosphere (5% CO2) at 37° C. in 75-mL culture flasks (Nunc, Wiesbaden, Germany). They were serially passaged following trypsinisation by 0.05% trypsin/0.02% EDTA (PAA laboratories, Clbe, Germany). Mycoplasma contamination was routinely monitored, and only mycoplasma-free cultures were used.
as §8, with “HL-60” for “MTT [3-(4,5-dimethylthiazol-2-yl)-2,5-diphenyltetrazolium bromide](ABCR) was used to identify viable cells which reduce it to a violet formazan (Mosmann, J. Immunol. Methods 1983, 65, 55-63). HL-60”, “Incubation (5% CO2, 95% humidity, 37° C.) of the cells following treatment with the test compounds was continued for 24, 48 or 72 h.” left out

[18] = tested on: HL-60 cells; assay: ROS generation, NBT assay, HL-60; assay type: cell-based, human; details: 50 μM, relative to untreated controls (1%), mean ± SD
Procedure: as §4, §5

| SMILES | pIC50 [3] | minimal inhibitory concentration (MIC) HUVEC [4] [µM] | pIC50 [5] | pIC50 [6] | pIC50 [7] | pIC50 [8] | Intact mitochondria [%] in HL-60 cells after 72 h [10] | NBT Reduction [%] in 518A2 cells after 24 h [11] [%] | Intact mitochondria [%] in 518A2 cells after 72 h [12] [%] | further results |
| --- | --- | --- | --- | --- | --- | --- | --- | --- | --- | --- |
| N.N.[Cl][Pt][Cl] [cisplatin] |  |  |  |  |  |  |  |  |  | tumor response [1]: complete regressions; tumor response [2]: only a transient growth inhibition followed by renewed tumor progress |
| COc1ccc(-c2ncn(C)c2-c2cc(Br)c(OC)c(Br)c2)cc1F [9b, 1-Methyl-4-(3-fluoro-4-methoxyphenyl)-5-(3,5-dibromo-4-methoxyphenyl)-imidazole] | 5.93 | 0.257 (≈ 0.121 µg/mL) | 8.00 | 6.40 | 4.66 | 7.85 |  |  |  |  |
| COc1ccc(-c2ncn(C)c2-c2cc(I)c(OC)c(I)c2)cc1F [9c, 1-Methyl-4-(3-fluoro-4-methoxyphenyl)-5-(3,5-diiodo-4-methoxyphenyl)-imidazole] | 6.48 | 0.083 (≈ 0.0468 µg/mL) | 8.48 | 5.48 | 7.74 | 8.60 |  |  |  |  |
| COc1ccc(-c2c(-c3cc(OC)c(OC)c(OC)c3)ncn2C)cc1N [compound 25f, reference compound] | 6.34 | 0.294 (≈ 0.109 µg/mL) | 7.05 | 6.87 | 6.67 | 7.17 | 74% and 74 ± 13% | 2.2 ± 0.4 | 87 ± 7 | concentration that inhibits tube formation [9]: 130 ng/mL |
| COc1ccc(/C=C\c2cc(OC)c(OC)c(OC)c2)cc1O [CA-4, combretastatin A-4, reference compound] |  |  |  |  |  |  |  |  |  | cytotoxicity (comparison) [13]: lower cytotoxicities than compounds 5b and 6b; effect on embryonal blood vessels [14]: dramatic vessel shrinkage within 24 h after treatment and to a complete degradation of the vascular system within three days |
| COc1ccc(-c2ocnc2-c2cc(N)c(OC)c(OC)c2)cc1N [compound 8a, 4-(3′-Amino-4′,5′-dimethoxyphenyl)-5-(3″-amino-4″-methoxyphenyl)-oxazole] |  |  |  |  |  |  | 62 ± 9% | 1.5 ± 0.1 | 85 ± 7 | apoptotic (TUNEL-positive) cells [15]: about 60%; inhibition of tube formation ([9]; 7.72 ng/mL): pronounced inhibition of tube formation; cytotoxicity / efficacy (comparison) [16]: greater efficacy than 25f and 5b/6b; efficacy (comparison) [17]: greater efficacy than 25f and 5b/6b; NBT Reduction [%] in HL-60 cells after 24 h [18]: 3.5 ± 0.4% |
